One data set addresses T1, histamine H2-receptor (Cavia porcellus, UniProt P47747).
T1 construct: The atrium isolated from quinea-pigs was mounted in an organ bath; from tissue; host or cells: isolated guinea pig atrium
Briefly: H2-Blocking activity (isolated guinea pig atrium, chronotropic response to histamine). Type of data set: cell-based. To be noted: isolated guinea pig atrium; test drugs 30 min. before 5 x 10^-6M histamine; dose producing 50% blockade of chronotropic response; read-out: 1)H2-bloc-kade guinea pig atrium ED50. How it is done: In addition, the experiments were performed using a known compound, TZU-0460, i. e., N-[3-(3-(1-piperi- dinylmethyl)phenoxy]propyl]acetoxyacetamide hydrochloride shown by the following formula [drawing 9] HC1 disclosed in European Patent No. 24,510. • 1. Experimental procedure • 1) H2-Blocking activity:
The atrium isolated from quinea-pigs was mounted in an organ bath containing Krebs-Henseleit solution gassed with 95% 02 and 5% C02 at 37°C. The spontaneous movement of the atrium was recorded through a strain gauge (Nihon Koden, SB-1T) on a polygraph (Nihon Koden, RM-6200). The tissue was exposed to test drugs 30 min. before treatment with 5 x 10-^6M histamine. The dose of test drugs producing 50%blockade of chronotropic response to histamine was obtained from each preparation.

Data set [1] deals with Male Wistar rats. Briefly: Gastric secretion inhibiting activity (pylorus-ligated rat, 4hr. shay rat). Type of data set: in vivo. How it is done: 2) Gastric secretion inhibiting activity: Male Wistar rats (about 200 g) were fasted but allowed free access to water for 24 hours prior to the experiment. The pylorus was ligated after abdominal midline incision under ether anesthesia. Four hours later, the animals were killed for the collection of gastric juice. The test compounds were given p.o. 1 hour before the pylorus ligation. Gastric juice (0.5 ml) was titrated against 0.05 N NaOH up to pH 7.0 to determine acid concentration using an automatic titrator (Hiranuma Sangyo Co., Comtite 7). The total acid output was calculated as the product of gastric volume by acid concentration.

Data set [2] has as its system Male Wistar rats. The data set is described as follows: Gastric cytoprotection (ethanol ulcer rat). Type of data set: in vivo. How it is done: 3) Gastric cytoprotection: Male Wistar rats (about 200 […]) were starved for 24 hours and deprived of water for 18 hours prior to the experiment. Absolute ethanol (1 ml/rat) was given orally to rats one hour after p.o. administration of the test compounds. One hour later, animals were sacrificed for the measurement of gastric lesions (mm^2).

The nature of another data set: Acute toxicity LD50 iv. To be noted: in vivo, species not given.
[3] abbreviates: Rattus norvegicus, po, 4 h; p.o. 1 hour before pylorus ligation; gastric juice collected four hours later; total acid output; read-out: 2)Anti-secretion 4hr. shay rat ED50 (mg/kg p.o.).
Setting [4] is: po, 1 h, p.o., absolute ethanol (1 ml/rat) orally one hour after test compound; gastric lesions measured one hour later; read-out: 3)Cytopro-tection ethanol ulcer rat ED50(mg/kg p.o.).

Structures can show the parent of a compound that is named as a salt.

T1 sequence (P47747 whole entry): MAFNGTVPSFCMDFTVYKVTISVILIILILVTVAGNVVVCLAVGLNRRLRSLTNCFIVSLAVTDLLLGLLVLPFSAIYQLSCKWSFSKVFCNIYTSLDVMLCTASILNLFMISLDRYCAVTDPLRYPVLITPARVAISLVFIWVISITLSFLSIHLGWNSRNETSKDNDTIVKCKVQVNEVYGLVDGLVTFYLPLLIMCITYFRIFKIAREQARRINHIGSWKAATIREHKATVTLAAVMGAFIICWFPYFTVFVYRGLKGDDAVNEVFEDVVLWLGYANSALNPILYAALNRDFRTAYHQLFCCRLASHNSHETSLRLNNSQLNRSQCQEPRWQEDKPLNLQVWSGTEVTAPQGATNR

For `C#CCc1c(C)[nH]c(NCCCOc2cccc(CN3CCCCC3)c2)nc1=O` [Example 9], the IC50 on histamine H2-receptor amounted to 210 nM. For the same compound, the results for the ED50 in the data set on Male Wistar rats [1] (setting [3]) and in the data set on Male Wistar rats [2] (setting [4]) were 3.1 mg/kg and 23.3 mg/kg, respectively.

For `CCCc1c(C)[nH]c(NCCCOc2cccc(CN3CCCCC3)c2)nc1=O` [Example 7, 6-Methyl-2-[3-[m-(piperidinomethyl)phenoxy]propylamino]-5-propyl-4(lH)-pyrimidone], on histamine H2-receptor, the IC50 turned out to be 510 nM. Further, the ED50 in the data set on Male Wistar rats [1] (setting [3]) came to 6.1 mg/kg; in the data set with Male Wistar rats [2] (setting [4]), 6.6 mg/kg.

For the compound `CC(C)=CCc1c(C)[nH]c(NCCCOc2cccc(CN3CCCCC3)c2)nc1=O` [Example 26, 6-methyl-5-(3-methyl-2-butenyl)-2-[3-[m-(piperidinomethyl)phenoxy]propylamino]-4(1H)-pyrimidone], on histamine H2-receptor, the IC50 worked out at 360 nM. Besides, the ED50 was found to be 5.2 mg/kg in the data set on Male Wistar rats [1] (setting [3]) and 20.5 mg/kg in the data set on Male Wistar rats [2] (setting [4]).

Consider `CCSCCc1c(C)[nH]c(NCCCOc2cccc(CN3CCCCC3)c2)nc1=O` [Example 15, 5-(2-Ethylthioethyl)-6-methyl-2-[3-[m-(piperidinomethyl)phenoxy]propylamino]-4(lH)-pyrimidone], for which the IC50 at histamine H2-receptor turned out to be 400 nM. Moreover, the ED50 is 10.9 mg/kg in the data set on Male Wistar rats [1] (setting [3]) and 25.4 mg/kg in the data set with Male Wistar rats [2] (setting [4]).

For the compound `CCCCCCCc1c(C)[nH]c(NCCCOc2cccc(CN3CCCCC3)c2)nc1=O` [Example 1, 5-heptyl-6-methyl-2-[3-[m-(piperidinomethyl)phenoxy]-propylamino]-4(lH)-pyrimidone di-hydrochloride], the IC50 at histamine H2-receptor is greater than 1000 nM. Besides, the ED50 is 2.6 mg/kg in the data set on Male Wistar rats [1] (setting [3]) and 6 mg/kg with Male Wistar rats [2] (setting [4]).

For `CCCCCc1c(CC)[nH]c(NCCCOc2cccc(CN3CCCCC3)c2)nc1=O` [Example 5, 6-Ethyl-5-pentyl-2-f3-[m-(piperidinomethyl)phenoxy]-propylamino]-4(lH)-pyrimidone dihydrochloride-dihydrate], the IC50 at histamine H2-receptor worked out at 8900 nM. The ED50 in the data set on Male Wistar rats [1] (setting [3]) came to 19 mg/kg; in the data set with Male Wistar rats [2] (setting [4]), 9.6 mg/kg.

As for `C=CCc1c(C)[nH]c(NCCCOc2cccc(CN3CCCC(C)C3)c2)nc1=O` (centres unmarked) [Example 30, 5-(2-Propenyl)-6-me thyl-2-[3-[m-(3-methylpiperidi-nomethyl)phenoxy]propylamino]-4(lH)-pyrimidone], the IC50 on histamine H2-receptor turned out to be 170 nM. The ED50 amounted to 18 mg/kg in the data set on Male Wistar rats [1] (setting [3]) and 17 mg/kg with Male Wistar rats [2] (setting [4]).

`C=C(C)Cc1c(C)[nH]c(NCCCOc2cccc(CN3CCCC(C)C3)c2)nc1=O` (centres unmarked) [Example 31, 6-Methyl-2-[3-[m-(3-methylpiperidinomethyl)pheno- : xy]propylamino]-5-(2-methyl-2-propenyl)-4(lH)-pyrimidone]: the IC50 at histamine H2-receptor is 290 nM. The ED50 in the data set with Male Wistar rats [1] (setting [3]) was 30.1 mg/kg; with Male Wistar rats [2] (setting [4]), 13.6 mg/kg.

`CC=CCc1c(C)[nH]c(NCCCOc2cccc(CN3CCCC(C)C3)c2)nc1=O` (centres unmarked) [Example 12, 5-(2-Butenyl)-6-methyl-2-[3-[m-(3-methylpiperidino-methyl)phenoxy]propylamino]-4(1H)-pyrimidone]: the IC50 on histamine H2-receptor was 610 nM. Also, the results for the ED50 in the data set with Male Wistar rats [1] (setting [3]) and in the data set on Male Wistar rats [2] (setting [4]) were 16.4 mg/kg and 6.7 mg/kg, respectively. In addition, in “Acute toxicity LD50 iv”, the LD50 – broadly, the dose expected to kill half of the subjects tested – was 42.5 mg/kg.

`CC=CCc1c(C)[nH]c(NCCCOc2cccc(CN3CCCC3)c2)nc1=O` [Example 14, 5-(2-Butenyl)-6-methyl-2-[3-[m-(pyrrolidinylmethyl)-phenoxy]propylamino]-4(1H)-pyrimidone]: the IC50 at histamine H2-receptor turned out to be 820 nM. The ED50 in the data set with Male Wistar rats [1] (setting [3]) was determined as 9.9 mg/kg; with Male Wistar rats [2] (setting [4]) it was 41.4 mg/kg.

As for `CC(=O)OCC(=O)NCCCOc1cccc(CN2CCCCC2)c1` [TZU-0460, N-[3-(3-(1-piperi-dinylmethyl)phenoxy]propyl]acetoxyacetamide hydrochloride, reference compound], the IC50 at histamine H2-receptor turned out to be 370 nM. The ED50 with Male Wistar rats [1] (Rattus norvegicus, po, 4 h, read-out: 2)Anti-secretion 4hr. shay rat ED50 (mg/kg p.o.)) is 35.1 mg/kg; in the data set with Male Wistar rats [2] (Rattus norvegicus, po, 1 h, read-out: 3)Cytopro-tection ethanol ulcer rat ED50(mg/kg p.o.)) it was 46.4 mg/kg.

In the case of `CCCCc1c(C)[nH]c(NCCCOc2cccc(CN3CCCCC3)c2)nc1=O` [Example 4, 5-butyl-6-methyl-2-L3-[m-(piperidinomethyl)phenoxy]propylamino]-4(1H)-pyrimidone dihydrochloride], on histamine H2-receptor, the IC50 was found to be 420 nM. Besides, the values for the ED50 with Male Wistar rats [1] (setting [3]) and in the data set with Male Wistar rats [2] (setting [4]) were 6.4 mg/kg and 5.8 mg/kg, respectively. In the data set “Acute toxicity LD50 iv”, this compound gave an LD50 of 61.1 mg/kg.

The values are drawn from patent EP0186275A2, “2-Substituted amino-4(1H)-pyrimidone derivatives, their production, and medical compositions containing them” (YAMANOUCHI PHARMACEUTICAL CO. LTD., priority 1984, dated 1986).
